Reference: article PMC11018795, “The regulatory relationship between NAMPT and PD-L1 in cancer and identification of a dual-targeting inhibitor” (EMBO Molecular Medicine, 2024)
Values joined by “and” are separate entries in the source; they are usually repeats but may differ in a detail not shown here. Identical values can stand only once.

What was measured:
[1] = system: NAD+ content of A2780 cells; experiment: NAD+ assay in A2780 cells; type: cell-based, human; conditions: for Relative NAD+: 0 nM = 100
Procedure: NAD^+ assays were performed to quantify the total NAD^+ content. NAD^+ assay was performed using the NAD/NADH Assay Kit (ab65348; Abcam) according to the manufacturer’s recommended protocol.

Hep-3B cells = experiment: MTT assay 48 h, Hep-3B; type: cell-based, human
Procedure: (§1) Cells (5 × 10^3/well) were seeded into a 96-well plate and cultured at 37 °C in a 5% CO2 incubator. […] At the final time point, 10 μl MTT solution (5 mg/ml, Sigma, Burlington, MA, USA) was added to each well and incubated for an additional 4 h at 37 °C in a 5% CO2 incubator. Then,100 μl of DMSO was added to each well and mixed thoroughly. Optical density was measured at 492 nm using a microplate reader (Molecular Devices, San Jose, CA, USA).

HepG2 cells = experiment: MTT assay 48 h, HepG2; type: cell-based, human
Procedure: as §1

MKN74 cells = experiment: MTT assay 48 h, MKN74; type: cell-based, human
Procedure: as §1

CT-26 cells = experiment: MTT assay 48 h, CT-26; type: cell-based, mouse
Procedure: as §1

MDA-MB-231 cells = experiment: MTT assay 48 h, MDA-MB-231; type: cell-based, human
Procedure: as §1

LLC cells = experiment: Apoptosis assay (Annexin V/PI), LLC; type: cell-based, mouse
Procedure: The cells are treated with the compounds. After 48–72 h, the cells were harvested and washed twice with cold PBS. The cells were then stained with Annexin V/propidium iodide (PI) (BD Biosciences) and examined using a NovoCyte Flow Cytometer (ACEA Biosciences). Data were analyzed using NovoExpress software (ACEA Biosciences).

[2] = system: LLC OE NAMPT/PD-L1 tumors; experiment: LLC OE NAMPT/PD-L1 tumor-bearing C57BL/6 mice; type: in vivo, mouse; conditions: 20 mg/kg i.p.
[3] = In vitro metabolic stability in human liver microsome; type: in vitro ADME
Procedure: 2) Pharmacokinetics: Human liver microsomal stability assay is widely adopted in the preliminary evaluation for pharmacokinetic properties, reflecting the potential metabolic stability of indicated compounds in the human body. Thus, considering the […]
activity of LZFPN-90, it was further evaluated for potential metabolism in human liver microsome. The intrinsic clearance for LZFPN-90 in human liver microsome is 0.035 mL/min/mg. According to the classical criteria (Low clearance: CLint < 0.01 mL/min/mg; medium clearance: 0.01 ≤ CLint ≤ 0.1 mL/min/mg; high clearance: CLint > […]
indicating its potential for further development. […]
Table 1. In Vitro Metabolic Stability of LZFPN-90 in Human Liver Microsome T1/2 CLint, in vitro Remaining
(min)a (mL/min/mg)b (T = 60 min) […]
b CLint: intrinsic clearance, CLint(mic)=0.693/T1/2/mg microsomal protein/mL
(1 picture or pasted object on this page, not shown here)

[4] = system: A2780, HCT-116, LLC, CT-26 cells co-cultured with T cells; experiment: T-cell-mediated tumor cell killing assay, A2780, HCT-116, LLC, CT-26; type: cell-based, human, mouse; conditions: 72 h co-culture
Procedure: To acquire activated T cells, human peripheral blood mononuclear cells (PBMC; LTS1077, Yanjin Biological) were cultured in CTSTM AIIM VTM SFM (A3021002; Gibco) with ImmunoCult Human CD3/CD28/CD2 T-cell activator (25 µL/mL; […] Technologies, Cat#10970) for 48 h according to the manufacturer’s protocol. The experiments were performed using mouse anti-CD3 antibody (1 µg/mL; Thermo Scientific, 16-0032-82) and anti-CD28 antibody(5 µg/mL; Thermo Scientific, 16-0281-82). […] Different proportions of cancer cells and activated T cells were utilized according to the purpose of each experiment. The T-cell proliferation assay was 1:3; the T-cell killing assay was 1:10; T cells and cell debris were removed by PBS washing, and the living cancer cells were then quantified by a spectrometer at OD (570 nm) followed by crystal violet staining.

NAMPT = NAMPT (Homo sapiens, UniProt P43490); experiment: Cellular thermal shift assay (CETSA), NAMPT, A2780 cells; type: binding; design: endogenous in cells; host or cells: A2780; conditions: for Relative band intensity (NAMPT): LZFPN-90 20 nM
Procedure: The cells were resuspended in 1× PBS supplemented with protease inhibitors (Roche) and then divided into strip tubes for 30 min. The tubes were centrifuged at 15,000× g at 4 °C for 15 min. After centrifugation, the supernatant was divided into DMSO and LZFPN-90 (20 nM) groups, and incubated at room temperature for 30 min. According to standard procedures (38 °C, 42 °C, 46 °C, 50 °C, 54 °C, 58 °C, 62 °C, 66 °C), each temperature group was heated for 3 min, incubated at room temperature for 3 min. Then centrifuged at 20,000× g for 25 min, the supernatant was collected, 1× loading buffer was added, the mixture was heated in a metal bath at 95 °C for 10 min, and the amount of non-denatured protein per sample was quantified by western blotting.

NAMPT, sequence (P43490 whole entry): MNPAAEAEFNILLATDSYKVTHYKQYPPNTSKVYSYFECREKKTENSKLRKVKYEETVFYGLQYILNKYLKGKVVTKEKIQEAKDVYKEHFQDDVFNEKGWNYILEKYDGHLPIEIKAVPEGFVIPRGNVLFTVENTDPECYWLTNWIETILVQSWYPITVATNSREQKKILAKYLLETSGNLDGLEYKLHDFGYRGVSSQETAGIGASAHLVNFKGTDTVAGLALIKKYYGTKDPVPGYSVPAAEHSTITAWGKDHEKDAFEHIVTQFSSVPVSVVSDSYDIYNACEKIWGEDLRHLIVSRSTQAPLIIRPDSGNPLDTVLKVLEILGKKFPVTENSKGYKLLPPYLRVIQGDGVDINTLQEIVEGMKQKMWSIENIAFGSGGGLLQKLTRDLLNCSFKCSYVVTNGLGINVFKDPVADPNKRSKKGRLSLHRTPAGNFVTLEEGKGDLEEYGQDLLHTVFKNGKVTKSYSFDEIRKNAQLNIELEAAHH

## CCN(CC)CCCOc1cccc(-c2cccc3c2CCN3C(=O)c2ncc(CNC(=NC#N)Nc3ccncc3)s2)c1 [LZFPN-90]
[1]; A2780 cells
  effect on NAD+ content: concentration-dependent reduction in the NAD^+ content
[1]; LZFPN-90 1.25 nM
  Relative NAD+: 35.1891 and 32.3761
[1]; LZFPN-90 2.5 nM
  Relative NAD+: 12.5247 and 11.2894
[1]; LZFPN-90 5 nM
  Relative NAD+: 8.877 and 6.867
[1]; LZFPN-90 10 nM
  Relative NAD+: 2.626 and 2.637
Hep-3B cells
  Relative inhibition (敏感性): 0.42
HepG2 cells
  Relative inhibition (敏感性): 0.58
MKN74 cells
  Relative inhibition (敏感性): 0.79
CT-26 cells
  Relative inhibition (敏感性): 0.17
MDA-MB-231 cells
  Relative inhibition (敏感性): 0.09
LLC cells; LZ90 15 nM
  Apoptotic cells (sum of both Annexin-positive quadrants): 5.3 and 5.6 and 7.76
LLC cells; LZ90 60 nM
  Apoptotic cells (sum of both Annexin-positive quadrants): 15.11 and 14.38 and 15.17
LLC cells; LZ90 240 nM
  Apoptotic cells (sum of both Annexin-positive quadrants): 25.37 and 24.61 and 22.88
[2]; 14 days, Fig 7B
  TIR / tumor growth inhibition (TGI) rate at endpoint: 76.01%
[2]; LLC OE NAMPT/PD-L1, Fig 7G
  TIR (relative tumor weight): 76.0%
[2]; LLC OE NAMPT/PD-L1 model
  effect on the organs of mice: minor effect on the organs of mice
[3]; criteria: low CLint < 0.01, medium 0.01-0.1, high > 0.1 mL/min/mg
  stability in human liver microsome: moderate stability in human liver microsome
[3]; human liver microsome
  Remaining (T = 60 min): 36.8%
[3]; liver microsomes, human liver microsome
  half-life: 39.6 min
[3]; liver microsomes, human liver microsome, read-out: CLint, in vitro (intrinsic clearance)
  microsomal CLint: 35 µL/min/mg
[4]
  T-cell killing of tumor cells, comparison at the same concentration: more effective than BMS202
NAMPT; LZFPN-90 20 nM vs blank group
  thermal stability of NAMPT: the stability of NAMPT and PD-L1 increased
NAMPT; 38 ℃
  Relative band intensity (NAMPT): 1.21 and 1.06
NAMPT; 42 ℃
  Relative band intensity (NAMPT): 1.16 and 1.1
NAMPT; 46 ℃
  Relative band intensity (NAMPT): 1.06 and 1.08
NAMPT; 50 ℃
  Relative band intensity (NAMPT): 1.08 and 1.02
NAMPT; 54 ℃
  Relative band intensity (NAMPT): 1.25 and 1.19
NAMPT; 58 ℃
  Relative band intensity (NAMPT): 1.21 and 1.16
NAMPT; 62 ℃
  Relative band intensity (NAMPT): 1.18 and 1.13
NAMPT; 66 ℃
  Relative band intensity (NAMPT): 0.52 and 0.48
